Assay results reported in PubChem BioAssay AID1918953 (Molecular Pharmacology Branch, DTP, NCI, 2023).
Several values for one entry are separate records, joined by “and”; a condition that tells them apart may be missing. Identical values can stand only once.

Test system: MDA-MB-231 complex spheroid viability
Experiment: Anticancer human tumor MDA-MB-231/ATCC cell line growth inhibition;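 further: drug exposure lasted 7 days starting on day 3 of spheroid growth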
Conditions: for viability, T/C: stronger effect = lower value
Summary of the method: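 Complex spheroids of tumor cells with HUVEC and human MSCs, exposed to iadademstat combined with other agents. Each agent tested in half-log steps from near clinical Cmax (else 10 microM top), DMSO ≤0.25%.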

[1] = curve of first compound, second compound 0.1 µM
[2] = curve of first compound, second compound 0.316 µM
[3] = curve of first compound, second compound 1 µM
[4] = curve of first compound, second compound 3.16 µM
[5] = curve of first compound, second compound 10 µM
[6] = second compound 0.1 µM, first compound 0.0316 µM
[7] = second compound 0.1 µM, first compound 0.1 µM
[8] = second compound 0.316 µM, first compound 0.0316 µM
[9] = second compound 0.316 µM, first compound 0.1 µM
[10] = second compound 1 µM, first compound 0.0316 µM
[11] = second compound 1 µM, first compound 0.1 µM
[12] = second compound 3.16 µM, first compound 0.0316 µM
[13] = second compound 3.16 µM, first compound 0.1 µM
[14] = second compound 10 µM, first compound 0.0316 µM
[15] = second compound 10 µM, first compound 0.1 µM

For `CC(C)c1c(-c2ccccc2)nc2c(C#N)c[nH]n2c1=O` + NC1CC1c1ccc(-c2cccc(O)c2)cc1, the IC50 [1] was > 10000 nM, the IC50 [2] was > 10000 nM and the IC50 [3] was > 10000 nM. The IC50 [4] was > 10000 nM, the IC50 [5] was < 31.6 nM and the viability, T/C [6] was 82.9%. For the same compound, the viability, T/C [7] was 84.7%, the viability, T/C (second compound 0.1 µM, first compound 0.316 µM) was 82% and the viability, T/C (second compound 0.1 µM, first compound 1 µM) was 85.4%. For the same compound, the viability, T/C (second compound 0.1 µM, first compound 3.16 µM) was 83%, the viability, T/C (second compound 0.1 µM, first compound 10 µM) was 82.4% and the viability, T/C [8] was 71%. The viability, T/C [9] was 69.8%, the viability, T/C (second compound 0.316 µM, first compound 0.316 µM) was 70.4% and the viability, T/C (second compound 0.316 µM, first compound 1 µM) was 63.1%. It also gave a viability, T/C (second compound 0.316 µM, first compound 3.16 µM) of 76.2%, a viability, T/C (second compound 0.316 µM, first compound 10 µM) of 62% and a viability, T/C [10] of 69.4%. For the same compound, the viability, T/C [11] was 69.5%, the viability, T/C (second compound 1 µM, first compound 0.316 µM) was 70.7% and the viability, T/C (second compound 1 µM, first compound 1 µM) was 63.6%. For the same compound, the viability, T/C (second compound 1 µM, first compound 3.16 µM) was 58.3%, the viability, T/C (second compound 1 µM, first compound 10 µM) was 52.9% and the viability, T/C [12] was 68.5%. The viability, T/C [13] was 65.1%, the viability, T/C (second compound 3.16 µM, first compound 0.316 µM) was 71% and the viability, T/C (second compound 3.16 µM, first compound 1 µM) was 68%. For the same compound, the viability, T/C (second compound 3.16 µM, first compound 3.16 µM) was 62.7%, the viability, T/C (second compound 3.16 µM, first compound 10 µM) was 56.5% and the viability, T/C [14] was 44.3%. The viability, T/C [15] was 42.9%, the viability, T/C (second compound 10 µM, first compound 0.316 µM) was 50.8% and the viability, T/C (second compound 10 µM, first compound 1 µM) was 51.5%. It also gave a viability, T/C (second compound 10 µM, first compound 3.16 µM) of 44.2% and a viability, T/C (second compound 10 µM, first compound 10 µM) of 45.2%.
With `Cn1ncnc1C1c2n[nH]c(=O)c3cc(F)cc(c23)NC1c1ccc(F)cc1` (configuration not stated) + NC1CCC(NC2CC2c2ccccc2)CC1 the IC50 [1] was > 100 nM, the IC50 [2] was > 100 nM and the IC50 [3] was > 100 nM. The IC50 [4] was > 100 nM, the IC50 [5] was < 0.316 nM and the viability, T/C (second compound 0.1 µM, first compound 0.000316 µM) was 95.7%. It also gave a viability, T/C (second compound 0.1 µM, first compound 0.001 µM) of 97.2%, a viability, T/C (second compound 0.1 µM, first compound 0.00316 µM) of 92.5% and a viability, T/C (second compound 0.1 µM, first compound 0.01 µM) of 81.9%. For the same compound, the viability, T/C [6] was 80.4%, the viability, T/C [7] was 78.7% and the viability, T/C (second compound 0.316 µM, first compound 0.000316 µM) was 95.4%. For the same compound, the viability, T/C (second compound 0.316 µM, first compound 0.001 µM) was 95.6%, the viability, T/C (second compound 0.316 µM, first compound 0.00316 µM) was 84.6% and the viability, T/C (second compound 0.316 µM, first compound 0.01 µM) was 80.7%. For the same compound, the viability, T/C [8] was 77.7%, the viability, T/C [9] was 75.2% and the viability, T/C (second compound 1 µM, first compound 0.000316 µM) was 92.3%. The viability, T/C (second compound 1 µM, first compound 0.001 µM) was 89.9%, the viability, T/C (second compound 1 µM, first compound 0.00316 µM) was 87.8% and the viability, T/C (second compound 1 µM, first compound 0.01 µM) was 81.3%. For the same compound, the viability, T/C [10] was 72.2%, the viability, T/C [11] was 70.7% and the viability, T/C (second compound 3.16 µM, first compound 0.000316 µM) was 70.8%. It also gave a viability, T/C (second compound 3.16 µM, first compound 0.001 µM) of 68.9%, a viability, T/C (second compound 3.16 µM, first compound 0.00316 µM) of 64.5% and a viability, T/C (second compound 3.16 µM, first compound 0.01 µM) of 60.4%. It also gave a viability, T/C [12] of 59.1%, a viability, T/C [13] of 60.9% and a viability, T/C (second compound 10 µM, first compound 0.000316 µM) of 48.3%. For the same compound, the viability, T/C (second compound 10 µM, first compound 0.001 µM) was 50.3%, the viability, T/C (second compound 10 µM, first compound 0.00316 µM) was 48.9% and the viability, T/C (second compound 10 µM, first compound 0.01 µM) was 42.2%. The viability, T/C [14] was 45.9% and the viability, T/C [15] was 44.6%.
`CC(C)c1c(-c2ccccc2)nc2c(C#N)c[nH]n2c1=O` was tested, and the viability, T/C (compound 0.0316 µM) was 101% and 102%, the viability, T/C (compound 0.1 µM) was 94.7% and 104% and the viability, T/C (compound 0.316 µM) was 97.9% and 117%. For the same compound, the viability, T/C (compound 1 µM) was 106% and 112%, the viability, T/C (compound 3.16 µM) was 108% and 121% and the viability, T/C (compound 10 µM) was 102% and 113%. For the same compound, the IC50 (curve of compound) was > 10000 nM.
